Measurements taken from PubChem BioAssay (NCI).
Several values for one entry are separate records, joined by “and”; a condition that tells them apart may be missing. Equal values may be shown once.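 Each compound was tested at five concentrations against cells in 96-well plates for 48 hours. GI50 marks 50% less growth. TGI marks complete inhibition of growth.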

Key:
Assay in all cases: DTP human tumour cell line panel, 48 h
PC-3 prostate = tested on: PC-3 prostate
OVCAR-4 ovarian = tested on: OVCAR-4 ovarian
COLO 205 colon = tested on: COLO 205 colon
A498 renal = tested on: A498 renal
A549 NSCLC = tested on: A549 NSCLC
U251 CNS = tested on: U251 CNS
MALME-3M melanoma = tested on: MALME-3M melanoma
NCI-H460 lung = tested on: NCI-H460 lung
MOLT-4 leukemia = tested on: MOLT-4 leukemia
HCT-116 colon = tested on: HCT-116 colon

SMILES	GI50 (PC-3 prostate)	TGI (PC-3 prostate)	GI50 (OVCAR-4 ovarian)	TGI (OVCAR-4 ovarian)	GI50 (COLO 205 colon)	TGI (COLO 205 colon)	GI50 (A498 renal)	TGI (A498 renal)	GI50 (A549 NSCLC)	TGI (A549 NSCLC)	GI50 (U251 CNS)	TGI (U251 CNS)	GI50 (MALME-3M melanoma)	TGI (MALME-3M melanoma)	GI50 (NCI-H460 lung)	TGI (NCI-H460 lung)	GI50 (MOLT-4 leukemia)	TGI (MOLT-4 leukemia)	GI50 (HCT-116 colon)	TGI (HCT-116 colon)
CC(C)=CCc1cc2c(cc1O)C1=C(C(=O)C3=C(NCCS3(=O)=O)C1=O)C(C=C(C)C)O2 (stereo unspecified)	5.58 µM	> 16.7 µM	3.31 µM	> 16.7 µM	5.53 µM	> 16.7 µM	> 16.7 µM	> 16.7 µM	> 16.7 µM	> 16.7 µM	4.19 µM	13.9 µM	1.68 µM	4.68 µM	5.35 µM	> 16.7 µM	3.16 µM	12.2 µM	5.84 µM	> 16.7 µM
CN1CCN(Cc2ccc(NC(=O)c3cncc(C#Cc4cnc(N)c5ncccc45)c3)cc2C(F)(F)F)CC1	0.584 µM	16.9 µM	0.1 µM	1.29 µM	0.231 µM	1.66 µM	0.141 µM	0.652 µM	0.436 µM	2.52 µM	0.509 µM	2.18 µM	0.131 µM	0.607 µM	0.261 µM	1.59 µM	0.239 µM	5.16 µM	0.122 µM	1.74 µM
N#CC1=C(N)Oc2c(sc3c(Br)cccc23)C1c1ccc([N+](=O)[O-])cc1 (stereo unspecified)	0.11 µM	13.6 µM	0.9 µM	18.7 µM	0.224 µM	1.14 µM	0.0434 µM	0.935 µM	0.177 µM	13.5 µM	0.151 µM	11.8 µM	1.08 µM	24.7 µM	0.0655 µM	10.4 µM	0.223 µM	6.07 µM	0.0799 µM	11 µM
COc1cc2cc(NCc3cccc(Cl)c3)nc(C)c2cc1OC	3.14 µM	23.7 µM	1.83 µM	25.4 µM	1.62 µM	9.3 µM	1.17 µM	11.6 µM	3.21 µM	37.6 µM	2.4 µM	16 µM	10.3 µM	23.8 µM	1.27 µM	14.6 µM	3.21 µM	30.4 µM	0.532 µM	9.63 µM
COc1ccc(-c2csc3c2-n2cccc2C3=O)cc1	0.0317 µM	> 52.1 µM	2.58 µM	> 100 µM	–	5.78 µM	0.124 µM	1.17 µM and 3.15 µM	0.0664 µM	> 100 µM	0.00887 µM	> 100 µM	–	> 100 µM	0.273 µM	> 43 µM	0.0352 µM	> 87.7 µM	0.0199 µM	> 45.4 µM
COc1cc2c(c3oc(-c4ccc(O)cc4)c(O)c(=O)c13)CCC(C)(C)O2	1.17 µM	> 100 µM	0.9 µM	2.88 µM	2.18 µM	5.02 µM	0.148 µM	0.538 µM	0.27 µM	0.729 µM	0.107 µM	0.8 µM	1.42 µM	> 100 µM	0.0996 µM	0.351 µM	0.191 µM	–	0.172 µM	0.372 µM
COc1cccc2c1nc(C(F)F)n2-c1nc(-c2ccc(NS(=O)(=O)CCN(C)C)cc2)nc(N2CCOCC2)n1	0.0923 µM	12.9 µM	0.138 µM	2.58 µM	0.0908 µM	2.64 µM	0.0337 µM	0.279 µM	0.174 µM	4.33 µM	0.454 µM	5.09 µM	0.0333 µM	0.317 µM	0.0883 µM	1.33 µM	0.123 µM	3.71 µM	0.456 µM	2.98 µM
O=P1(NCCCl)OCCCN1CCCl (stereo unspecified)	–	> 500 µM	–	447 µM	–	428 µM	–	462 µM	–	434 µM	–	431 µM	–	399 µM	–	448 µM	–	391 µM	–	440 µM
COC(=O)N[C@H]1CCc2cc(OC)c(OC)c(OC)c2-c2ccc(SC)c(=O)cc21	< 0.01 µM	> 100 µM	0.0205 µM	> 100 µM	< 0.01 µM	–	< 0.01 µM	< 0.0255 µM	< 0.01 µM	> 100 µM	< 0.01 µM	> 43.5 µM	< 0.012 µM	> 100 µM	< 0.01 µM	> 100 µM	< 0.01 µM	> 70.5 µM	< 0.01 µM	> 100 µM
CCN(Cc1ccc(OC)cc1)c1ccc(CO)c(Cl)c1	21.7 µM	> 81.8 µM	0.369 µM	15.9 µM	0.451 µM	3.31 µM	0.0306 µM	0.168 µM	2.62 µM	35.9 µM	0.966 µM	26.6 µM	17 µM	38.4 µM	0.317 µM	14.6 µM	21.6 µM	59.7 µM	0.0875 µM	10.8 µM
CC(C)=CCC/C(C)=C/CC/C(C)=C/CSC[C@H](NC(=O)CCCCCN1CCN(C)CC1)C(=O)NC1CCCCCC1	1.89 µM	4.31 µM	3.21 µM	13.1 µM	1.85 µM	3.63 µM	3.76 µM	16.7 µM	2.5 µM	7.4 µM	1.73 µM	3.19 µM	1.94 µM	3.56 µM	1.93 µM	3.69 µM	2.69 µM	7.48 µM	1.71 µM	3.16 µM
Cn1cc(C2=C(c3ccsc3)C(=O)NC2=O)c2ccccc21	> 25 µM	> 25 µM	> 25 µM	> 25 µM	> 25 µM	> 25 µM	12.1 µM	> 25 µM	> 25 µM	> 25 µM	> 25 µM	> 25 µM	> 25 µM	> 25 µM	> 25 µM	> 25 µM	> 25 µM	> 25 µM	> 25 µM	> 25 µM
CN1C(=O)C(c2c[nH]c3ccccc23)=C(c2c[nH]c3ccccc23)C1=O	4.46 µM	> 25 µM	7.58 µM	> 25 µM	4.77 µM	12.4 µM	3.55 µM	17.2 µM	7.08 µM	> 25 µM	7.03 µM	> 25 µM	7.44 µM	> 20.8 µM	5.52 µM	15 µM	7.83 µM	> 25 µM	6.75 µM	> 25 µM
CC1=C(CCCOC(=O)[C@H](N)CC(C)C)C2=C(C)C3(CC3)[C@@](C)(O)C(=O)C2=C1	2.43 µM	44.1 µM	1.54 µM	21.6 µM	1.49 µM	3.42 µM	1.68 µM	3.66 µM	3.06 µM	30.9 µM	2.53 µM	13.7 µM	1.44 µM	3.31 µM	0.375 µM	11.1 µM	24.6 µM	> 100 µM	1.7 µM	5.91 µM
C/C(=C\C(=O)O[C@H]1[C@@H]2[C@H](C)CC[C@H]2[C@]2(C)O[C@@]1(C1CCCCC1)C[C@H]2OC(=O)CO)c1ccccc1	5.05 µM	10.9 µM	7.25 µM	13.8 µM	7.61 µM	15 µM	0.0164 µM	0.114 µM	6.61 µM	12.4 µM	6.02 µM	11.5 µM	7.25 µM	13.5 µM	6.86 µM	14.1 µM	6.42 µM	13.6 µM	6.18 µM	12 µM
CC1CCCCCC(=O)c2c(O)cc(O)cc2CC(=O)O1 (stereo unspecified)	–	> 100 µM	–	> 100 µM	–	> 100 µM	–	> 100 µM	–	> 100 µM	–	> 100 µM	–	> 100 µM	–	> 100 µM	–	> 100 µM	–	> 100 µM
CS(=O)(=O)OCCN(CCOS(C)(=O)=O)c1ccc(C=Nc2ccc(-c3csc(COc4ccccc4)n3)cc2)cc1	–	28.2 µM	–	49.1 µM	–	6.98 µM	–	7.48 µM	–	32.1 µM	–	25 µM	–	28.8 µM	–	2.1 µM	–	15.6 µM	–	27.6 µM
